Experimental data published in PubChem BioAssay (NCI).
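Exposure lasted 48 hours, with cells grown in 96-well plates and compounds tested at five concentrations. The concentration for full growth arrest is given as TGI.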

Experiments:
Experiment in all cases: DTP human tumour cell line panel, 48 h
786-0 renal = tested on: 786-0 renal
A498 renal = tested on: A498 renal
A549 NSCLC = tested on: A549 NSCLC
ACHN renal = tested on: ACHN renal
BT-549 breast = tested on: BT-549 breast
CAKI-1 renal = tested on: CAKI-1 renal
CCRF-CEM leukemia = tested on: CCRF-CEM leukemia
COLO 205 colon = tested on: COLO 205 colon
DU-145 prostate = tested on: DU-145 prostate
EKVX NSCLC = tested on: EKVX NSCLC
HCC-2998 colon = tested on: HCC-2998 colon
HCT-116 colon = tested on: HCT-116 colon
HCT-15 colon = tested on: HCT-15 colon
HL-60(TB) leukemia = tested on: HL-60(TB) leukemia
HOP-62 NSCLC = tested on: HOP-62 NSCLC
HOP-92 NSCLC = tested on: HOP-92 NSCLC
HS 578T breast = tested on: HS 578T breast
HT29 colon = tested on: HT29 colon
IGROV1 ovarian = tested on: IGROV1 ovarian
K-562 leukemia = tested on: K-562 leukemia
KM12 colon = tested on: KM12 colon
LOX IMVI melanoma = tested on: LOX IMVI melanoma
M14 melanoma = tested on: M14 melanoma
MALME-3M melanoma = tested on: MALME-3M melanoma
MCF7 breast = tested on: MCF7 breast
MDA-MB-231 breast = tested on: MDA-MB-231 breast
MDA-MB-435 = tested on: MDA-MB-435
MDA-N = tested on: MDA-N
MOLT-4 leukemia = tested on: MOLT-4 leukemia
NCI-H226 lung = tested on: NCI-H226 lung
NCI-H23 lung = tested on: NCI-H23 lung
NCI-H460 lung = tested on: NCI-H460 lung
NCI-H522 lung = tested on: NCI-H522 lung
OVCAR-3 ovarian = tested on: OVCAR-3 ovarian
OVCAR-4 ovarian = tested on: OVCAR-4 ovarian
OVCAR-5 ovarian = tested on: OVCAR-5 ovarian
PC-3 prostate = tested on: PC-3 prostate
RPMI-8226 leukemia = tested on: RPMI-8226 leukemia
RXF 393 renal = tested on: RXF 393 renal
SF-268 CNS = tested on: SF-268 CNS
SF-295 CNS = tested on: SF-295 CNS
SF-539 CNS = tested on: SF-539 CNS
SK-MEL-2 melanoma = tested on: SK-MEL-2 melanoma
SK-MEL-28 melanoma = tested on: SK-MEL-28 melanoma
SK-MEL-5 melanoma = tested on: SK-MEL-5 melanoma
SK-OV-3 ovarian = tested on: SK-OV-3 ovarian
SN12C renal = tested on: SN12C renal
SNB-19 CNS = tested on: SNB-19 CNS
SW-620 colon = tested on: SW-620 colon
T-47D breast = tested on: T-47D breast
TK-10 renal = tested on: TK-10 renal
U251 CNS = tested on: U251 CNS
UACC-257 melanoma = tested on: UACC-257 melanoma
UACC-62 melanoma = tested on: UACC-62 melanoma
UO-31 renal = tested on: UO-31 renal
NCI/ADR-RES ovarian = tested on: NCI/ADR-RES ovarian
OVCAR-8 ovarian = tested on: OVCAR-8 ovarian
SNB-75 CNS = tested on: SNB-75 CNS

Measured: TGI

C=C1CC/C=C(/C(=O)O)CC[C@H]2[C@@H]1CC2(C)C
> 100 µM: 786-0 renal | A498 renal | A549 NSCLC | ACHN renal | BT-549 breast | CAKI-1 renal | CCRF-CEM leukemia | COLO 205 colon | DU-145 prostate | EKVX NSCLC | HCC-2998 colon | HCT-116 colon | HCT-15 colon | HL-60(TB) leukemia | HOP-62 NSCLC | HOP-92 NSCLC | HS 578T breast | HT29 colon | IGROV1 ovarian | K-562 leukemia | KM12 colon | LOX IMVI melanoma | M14 melanoma | MALME-3M melanoma | MCF7 breast | MDA-MB-231 breast | MDA-MB-435 | MDA-N | MOLT-4 leukemia | NCI-H226 lung | NCI-H23 lung | NCI-H460 lung | NCI-H522 lung | OVCAR-3 ovarian | OVCAR-4 ovarian | OVCAR-5 ovarian | PC-3 prostate | RPMI-8226 leukemia | RXF 393 renal | SF-268 CNS | SF-295 CNS | SF-539 CNS | SK-MEL-2 melanoma | SK-MEL-28 melanoma | SK-MEL-5 melanoma | SK-OV-3 ovarian | SN12C renal | SNB-19 CNS | SW-620 colon | T-47D breast | TK-10 renal | U251 CNS | UACC-257 melanoma | UACC-62 melanoma | UO-31 renal

Cc1ccc(S(=O)(=O)N2CCSCCSCCN(S(=O)(=O)c3ccc(C)cc3)CCN(S(=O)(=O)c3ccc(C)cc3)CC2)cc1
> 100 µM: 786-0 renal | A498 renal | A549 NSCLC | ACHN renal | BT-549 breast | CAKI-1 renal | CCRF-CEM leukemia | COLO 205 colon | DU-145 prostate | EKVX NSCLC | HCC-2998 colon | HCT-116 colon | HCT-15 colon | HL-60(TB) leukemia | HOP-62 NSCLC | HOP-92 NSCLC | HS 578T breast | HT29 colon | IGROV1 ovarian | K-562 leukemia | KM12 colon | LOX IMVI melanoma | M14 melanoma | MALME-3M melanoma | MCF7 breast | MDA-MB-231 breast | MDA-MB-435 | MDA-N | MOLT-4 leukemia | NCI-H226 lung | NCI-H23 lung | NCI-H460 lung | NCI-H522 lung | NCI/ADR-RES ovarian | OVCAR-3 ovarian | OVCAR-4 ovarian | OVCAR-5 ovarian | OVCAR-8 ovarian | PC-3 prostate | RPMI-8226 leukemia | RXF 393 renal | SF-268 CNS | SF-295 CNS | SF-539 CNS | SK-MEL-2 melanoma | SK-MEL-28 melanoma | SK-MEL-5 melanoma | SK-OV-3 ovarian | SN12C renal | SNB-19 CNS | SW-620 colon | T-47D breast | TK-10 renal | U251 CNS | UACC-257 melanoma | UO-31 renal

O=C(O)c1cc2ccccc2c(N=Nc2c([N+](=O)[O-])cc([N+](=O)[O-])cc2S(=O)(=O)O)c1O
> 100 µM: 786-0 renal | A549 NSCLC | ACHN renal | BT-549 breast | CAKI-1 renal | CCRF-CEM leukemia | COLO 205 colon | EKVX NSCLC | HCT-116 colon | HCT-15 colon | HOP-62 NSCLC | HOP-92 NSCLC | HS 578T breast | HT29 colon | IGROV1 ovarian | K-562 leukemia | KM12 colon | LOX IMVI melanoma | M14 melanoma | MALME-3M melanoma | MDA-MB-231 breast | MDA-MB-435 | MDA-N | MOLT-4 leukemia | NCI-H226 lung | NCI-H23 lung | NCI-H522 lung | NCI/ADR-RES ovarian | OVCAR-3 ovarian | OVCAR-4 ovarian | OVCAR-5 ovarian | OVCAR-8 ovarian | PC-3 prostate | RPMI-8226 leukemia | RXF 393 renal | SF-268 CNS | SF-295 CNS | SK-MEL-2 melanoma | SK-MEL-28 melanoma | SK-MEL-5 melanoma | SK-OV-3 ovarian | SN12C renal | SNB-19 CNS | SNB-75 CNS | SW-620 colon | TK-10 renal | U251 CNS | UACC-257 melanoma | UACC-62 melanoma | UO-31 renal
